According to article PMC6964667 (2020):
Blank lines part the entries; values can stand above or below the molecule they belong to.

Experiments:
[1] = system: D3 (DNA, hairpin) CATTGTCATGCCTTTTTGGCATGACAATG; experiment: CD/UV melting at 260 nm; conditions: 10 mM KCl, 10 mM MgCl2, 5 mM CaCl2; sodium dimethyl arsinate pH 6.9, 6% DMSO; 3.3 equiv compound, 8.87 μM DNA
[2] = system: D3' (DNA, hairpin) CATTGTTATGCCTTTTTGGCATAACAATG; experiment: CD/UV melting at 260 nm; conditions: 10 mM KCl, 10 mM MgCl2, 5 mM CaCl2; sodium dimethyl arsinate pH 6.9, 6% DMSO; 3.7 equiv compound, 8.87 μM DNA
[3] = system: D3' (DNA, hairpin) CATTGTTATGCCTTTTTGGCATAACAATG; experiment: CD titration (ICD); conditions: 10 mM KCl, 10 mM MgCl2, 5 mM CaCl2, 10 μM DNA
[4] = system: D3 (DNA, hairpin) CATTGTCATGCCTTTTTGGCATGACAATG; experiment: CD titration (ICD); conditions: 10 mM KCl, 10 mM MgCl2, 5 mM CaCl2, 10 μM DNA
[5] = system: D1 (DNA, hairpin) CATTGTCAGCCTTTTTGGCTGACAATG; experiment: CD titration (ICD); conditions: 10 mM KCl, 10 mM MgCl2, 5 mM CaCl2, 10 μM DNA
[6] = system: D1' (DNA, hairpin) CATTGTTAGCCTTTTTGGCTAACAATG; experiment: CD titration (ICD); conditions: 10 mM KCl, 10 mM MgCl2, 5 mM CaCl2, 10 μM DNA
[7] = system: D2 (DNA, hairpin) CATTGTTAGACTTTTTGTCTAACAATG; experiment: CD titration (ICD); conditions: 10 mM KCl, 10 mM MgCl2, 5 mM CaCl2, 10 μM DNA
[8] = system: D2' (DNA, hairpin) CATTGTCAGACTTTTTGTCTGACAATG; experiment: CD/UV melting at 260 nm; conditions: 10 mM KCl, 10 mM MgCl2, 5 mM CaCl2; sodium dimethyl arsinate pH 6.9, 6% DMSO; 3.6 equiv compound, 8.87 μM DNA
[9] = system: D2' (DNA, hairpin) CATTGTCAGACTTTTTGTCTGACAATG; experiment: CD titration (ICD); conditions: 10 mM KCl, 10 mM MgCl2, 5 mM CaCl2, 10 μM DNA
[10] = system: D2 (DNA, hairpin) CATTGTTAGACTTTTTGTCTAACAATG; experiment: CD/UV melting at 260 nm; conditions: 10 mM KCl, 10 mM MgCl2, 5 mM CaCl2; sodium dimethyl arsinate pH 6.9, 6% DMSO; 3.9 equiv compound, 8.87 μM DNA
[11] = system: D1 (DNA, hairpin) CATTGTCAGCCTTTTTGGCTGACAATG; experiment: CD/UV melting at 260 nm; conditions: 10 mM KCl, 10 mM MgCl2, 5 mM CaCl2; sodium dimethyl arsinate pH 6.9, 6% DMSO; 3.3 equiv compound, 8.87 μM DNA
[12] = system: D1' (DNA, hairpin) CATTGTTAGCCTTTTTGGCTAACAATG; experiment: CD/UV melting at 260 nm; conditions: 10 mM KCl, 10 mM MgCl2, 5 mM CaCl2; sodium dimethyl arsinate pH 6.9, 6% DMSO; 3.3 equiv compound, 8.87 μM DNA
[13] = 10 mM sodium dimethyl arsinate pH 6.9, up to 6% DMSO, 20 °C, saturation not reached
[14] = 10 mM sodium dimethyl arsinate pH 6.9, up to 6% DMSO, 20 °C
[15] = 10 mM sodium dimethyl arsinate pH 6.9, 20 °C, up to 4.8 equiv, no ICD

SMILES: CN(C)CCCNC(=O)CCNC(=O)c1cc(NC(=O)c2cc(NC(=O)c3nc(NC(=O)c4cc(NC(=O)Cc5cccc(/N=N\c6cccc(CNC(=O)c7cc(NC(=O)c8cc(NC(=O)c9cc(NC(=O)c%10nccn%10C)cn9C)cn8C)cn7C)c6)c5)cn4C)cn3C)cn2C)cn1C
ΔTm [1]: 3.5 K | ΔTm [2]: 0.4 K | KD [3, 13]: 52.9 ± 29.6 µM | KD [4, 14]: 21.3 ± 11.2 µM

SMILES: CN(C)CCCNC(=O)CCNC(=O)c1cc(NC(=O)c2cc(NC(=O)c3cc(NC(=O)Cc4cccc(/N=N\c5cccc(CNC(=O)c6cc(NC(=O)c7cc(NC(=O)c8nccn8C)cn7C)cn6C)c5)c4)cn3C)cn2C)cn1C
KD [7, 13]: 52.3 ± 21.0 µM | ΔTm [8]: 1.4 K | KD [9, 14]: 42.2 ± 6.3 µM | ΔTm [10]: 2.0 K

SMILES: CN(C)CCCNC(=O)CCNC(=O)c1cc(NC(=O)c2cc(NC(=O)c3cc(NC(=O)Cc4cccc(/N=N/c5cccc(CNC(=O)c6cc(NC(=O)c7cc(NC(=O)c8nccn8C)cn7C)cn6C)c5)c4)cn3C)cn2C)cn1C
binding [7, 15]: no | binding [9, 15]: no

Results, then the molecule that gave them:

binding [3, 15]: no | binding [4, 15]: no
SMILES: CN(C)CCCNC(=O)CCNC(=O)c1cc(NC(=O)c2cc(NC(=O)c3nc(NC(=O)c4cc(NC(=O)Cc5cccc(/N=N/c6cccc(CNC(=O)c7cc(NC(=O)c8cc(NC(=O)c9cc(NC(=O)c%10nccn%10C)cn9C)cn8C)cn7C)c6)c5)cn4C)cn3C)cn2C)cn1C

binding [5, 15]: no | binding [6, 15]: no
SMILES: CN(C)CCCNC(=O)CCNC(=O)c1cc(NC(=O)c2cc(NC(=O)c3nc(NC(=O)Cc4cccc(/N=N/c5cccc(CNC(=O)c6cc(NC(=O)c7cc(NC(=O)c8nccn8C)cn7C)cn6C)c5)c4)cn3C)cn2C)cn1C

KD [5, 14]: 11.8 ± 6.0 µM | KD [6, 14]: 13.2 ± 7.8 µM | ΔTm [11]: 3.5 K | ΔTm [12]: 2.1 K
SMILES: CN(C)CCCNC(=O)CCNC(=O)c1cc(NC(=O)c2cc(NC(=O)c3nc(NC(=O)Cc4cccc(/N=N\c5cccc(CNC(=O)c6cc(NC(=O)c7cc(NC(=O)c8nccn8C)cn7C)cn6C)c5)c4)cn3C)cn2C)cn1C
